Values joined by “and” are separate entries in the source; they are usually repeats but may differ in a detail not shown here. Equal entries are not always repeated. “Also recorded” adds a separate entry of the source. Values belong to the molecule of their own block, whether it stands above or below them.
What was measured:
E. coli-expressed nNOS [1] = target: T1, E. coli-expressed nNOS (Rattus norvegicus, UniProt P29476); conditions: purified nnos, 2 min
Procedure: Enzymatic activity determined by the rate of NO. formation. The rate of nitric oxide formation was measured using both the hemoglobin capture assay (Kelm and Schrader, 1990), performed at 25° C. as described by Sheta, et al. (1994), and the method of Bredt and Snyder (1990), which monitors the formation of [^3 H] L-citrulline from [^3 H] […] Each reaction mixture, containing 0.5 mg of enzyme, was incubated at 25° C. for 2 minutes (over which time the reaction is linear). For Km analysis, the concentration of [^3 H]
Enzymatic activity of purified E. coli-expressed enzyme.

E. coli-expressed nNOS [2] = target: T1, E. coli-expressed nNOS; assay: Absolute absorbance spectrum perturbation of nNOS; format: binding; parameters: made in house; host or cells: E. coli BL21 co-transformed with pNOSpCW and pGroELS; conditions: imidazole 1 mM; arginine 2 μM
Procedure: Studies were performed as described in Example 2 using 3.2 μM nNOS.
(§1) Spectrophotometric methods. Absolute spectra and CO difference spectra were performed essentially as described by McMillan and Masters (1993) with the exception that all measurements were performed in buffer B and the CO difference spectra were obtained by reducing the protein and then bubbling the sample cuvette with CO. Substrate perturbation difference spectra were performed as described (McMillan and Masters, 1993), but in the presence of 1 mM imidazole to shift the entire population of nNOS to the low spin heme state. The molar protein concentration was determined based on heme content and Δε444-475 =75 mM^1 (Stuehr and Ikeda-Saito, 1992; McMillan and Masters, 1995). All spectral analyses were performed using a Shimadzu Model 2101 UV/visible dual-beam spectrophotometer.

E. coli-expressed nNOS [3] = target: T1, E. coli-expressed nNOS; assay: Substrate perturbation difference spectrophotometry (spectral binding); parameters: made in house; host or cells: E. coli BL21 co-transformed with pNOSpCW and pGroELS; conditions: 1 mM imidazole present; assuming Kd imidazole 160 μM; read-out: spectral binding constant (KS)
Procedure: Studies were performed as described in Example 2 using 1.5 μM nNOS in the presence of 1 mM imidazole.
as §1
(FIG. 2B), using the following:
apparent KS =KS (1+[Imidazole]/Kd imidazole).

[4] = system: human kidney 293 cell-purified nNOS; assay: Km analysis, nNOS from human kidney 293 cells; format: biochemical, rat; conditions: read-out: Km for L-arginine
Procedure: (§2) Enzymatic activity determined by the rate of NO. formation. […] L-citrulline from [^3 H] […] For Km analysis, the concentration of [^3 H]
These values are in excellent agreement with each other and with the Km value of 2 μM for nNOS reported by Bredt and Snyder (1990).

[5] = system: nNOS isolated from rat brain; conditions: read-out: Km for L-arginine; reported by Bredt and Snyder (1990); cited from earlier work
E. coli-expressed nNOS [6] = target: T1, E. coli-expressed nNOS; assay: [3H]-NNA binding to purified E. coli-expressed nNOS by direct titration; parameters: made in house; host or cells: E. coli BL21 co-transformed with pNOSpCW and pGroELS
Procedure: Studies were performed as described in Example 4 using 10 pmole nNOS. Symbols are: circles, semi-purified E. coli-expressednNOS eluted from a 2'5'-ADP-Sepharose 4B column in the absence of BH4 during purification; triangles, purified E. coli-expressed nNOS purified in the presence of BH4 as described in Example 1; open symbols represent data from assays performed in the absence of additional BH4; filled symbols represent data from assays performed in the presence of 10 μM BH4.
The incubation was stopped by aspiration of the sample through the PVDF membrane. The wells were washed twice with 200 μl of 50 mM Tris, pH 7.6, air-dried for 10 minutes, 25 μl scintillation cocktail was added, and samples were counted.
Binding of N^ω -nitro-arginine to purified E. coli-expressed enzyme.

nNOS = conditions: assumed value from McMillan and Masters, 1993, Wolff et al., read-out: Kd imidazole; cited from earlier work
[7] = Specific activity of nNOS (NO formation); format: biochemical
Source text: as §2

T1 sequence (P29476 whole entry): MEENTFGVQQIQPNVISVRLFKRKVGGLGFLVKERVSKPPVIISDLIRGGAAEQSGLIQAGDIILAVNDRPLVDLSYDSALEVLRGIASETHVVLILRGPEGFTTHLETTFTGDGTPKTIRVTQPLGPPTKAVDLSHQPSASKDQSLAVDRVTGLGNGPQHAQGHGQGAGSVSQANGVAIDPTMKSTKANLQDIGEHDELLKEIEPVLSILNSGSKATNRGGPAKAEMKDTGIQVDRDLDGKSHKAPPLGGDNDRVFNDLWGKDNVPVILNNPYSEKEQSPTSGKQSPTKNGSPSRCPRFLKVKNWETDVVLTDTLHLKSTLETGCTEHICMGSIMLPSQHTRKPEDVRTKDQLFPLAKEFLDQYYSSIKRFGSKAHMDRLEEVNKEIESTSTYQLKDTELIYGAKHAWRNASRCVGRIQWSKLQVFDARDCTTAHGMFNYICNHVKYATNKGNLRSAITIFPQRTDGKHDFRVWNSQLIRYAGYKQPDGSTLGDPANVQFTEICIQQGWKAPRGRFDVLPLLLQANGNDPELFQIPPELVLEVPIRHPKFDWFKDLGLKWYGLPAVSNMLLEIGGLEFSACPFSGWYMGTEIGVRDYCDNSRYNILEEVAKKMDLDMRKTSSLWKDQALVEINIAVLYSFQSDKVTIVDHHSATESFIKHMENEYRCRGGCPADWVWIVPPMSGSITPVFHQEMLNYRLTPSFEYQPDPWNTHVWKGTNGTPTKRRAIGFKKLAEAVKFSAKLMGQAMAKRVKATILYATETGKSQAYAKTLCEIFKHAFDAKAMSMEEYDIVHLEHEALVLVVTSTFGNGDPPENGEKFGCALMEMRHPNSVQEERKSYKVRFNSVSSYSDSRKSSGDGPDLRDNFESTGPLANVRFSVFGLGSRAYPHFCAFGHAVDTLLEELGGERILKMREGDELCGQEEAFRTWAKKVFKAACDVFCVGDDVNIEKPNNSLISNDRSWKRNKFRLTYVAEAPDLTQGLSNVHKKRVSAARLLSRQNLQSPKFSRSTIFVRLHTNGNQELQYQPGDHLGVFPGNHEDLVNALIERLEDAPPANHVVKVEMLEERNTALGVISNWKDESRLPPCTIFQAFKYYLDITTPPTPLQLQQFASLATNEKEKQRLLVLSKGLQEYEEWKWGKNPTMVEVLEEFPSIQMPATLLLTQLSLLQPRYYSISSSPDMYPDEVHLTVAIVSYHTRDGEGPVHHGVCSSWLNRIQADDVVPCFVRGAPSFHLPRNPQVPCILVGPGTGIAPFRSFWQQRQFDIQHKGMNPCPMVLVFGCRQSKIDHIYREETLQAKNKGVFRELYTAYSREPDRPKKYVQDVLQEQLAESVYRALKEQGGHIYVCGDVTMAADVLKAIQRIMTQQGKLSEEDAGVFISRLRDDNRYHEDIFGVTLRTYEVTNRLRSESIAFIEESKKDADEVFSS

- stimulation of turnover by BH4, fraction 1 (E. coli-expressed nNOS [1]): 2.7 fold
- stimulation of turnover by BH4, fraction 2 (E. coli-expressed nNOS [1]): 2.3 fold
Molecule: C[C@H](O)[C@H](O)[C@H]1CNc2nc(N)[nH]c(=O)c2N1 [BH4, (6R)-5, 6, 7, 8 tetrahydro-L-biopterin]

Molecule: N=C(N)NCCC[C@H](N)C(=O)O [L-arginine]
- shift of maximum heme absorbance at 400 nm (E. coli-expressed nNOS [2]): completely to the high spin form (peak at 395 nm)
- Kd (E. coli-expressed nNOS [3]): ~717 nM and 717 nM
- Km [4]: 1.9 µM and ~2 µM
- Km [5]: 2 µM and ~2 µM

- Bmax (E. coli-expressed nNOS [6]; Fraction 1, (+) BH4): 0.54 pmol NNA/pmol nNOS
- Bmax (E. coli-expressed nNOS [6]; Fraction 1, (-) BH4): 0.078 pmol NNA/pmol nNOS
- Bmax (E. coli-expressed nNOS [6]; Fraction 2, (+) BH4): 0.69 pmol NNA/pmol nNOS
- Bmax (E. coli-expressed nNOS [6]; Fraction 2, (-) BH4): 0.67 pmol NNA/pmol nNOS
Molecule: N=C(NCCC[C@H](N)C(=O)O)N[N+](=O)[O-] [NNA, N^ω -nitro-L-arginine]
- binding of NNA to nNOS fraction 1 (E. coli-expressed nNOS [6]; fraction 1 (pre-BH4)): binds significantly to E. coli-expressed nNOS fraction 1 only in the presence of added BH4
- binding of NNA to nNOS fraction 2 (E. coli-expressed nNOS [6]; fraction 2 (65% BH4-saturated)): equally well in the presence or absence of added BH4

Molecule: c1c[nH]cn1 [imidazole]
- shift of maximum heme absorbance at 400 nm (E. coli-expressed nNOS [2]): low spin form (peak at 428 nm)
- Kd (nNOS): 160000 nM

Molecule: nNOS from JM109: nNOS co-expressed with groEL and groES in E. coli JM109, heavily proteolyzed upon cell lysis
- activity relative to nNOS purified from 293 cells ([7]; nNOS from E. coli JM109 co-expressing groEL and groES, heavily proteolyzed): 1%

Molecule: nNOS: rat neuronal NOS overexpressed in E. coli BL21 with chaperonins groEL and groES
- specific activity compared with mammalian (kidney 293) cell-expressed nNOS [7]: equal to or exceeding the activity of kidney 293 cell-derived enzyme; also recorded: at least as high as that of kidney 293 cell-expressed enzyme; also recorded: at least equal to or greater than the mammalian cell-expressed nNOS
- specific activity / turnover ([7]; E. coli-expressed nNOS, both hemoglobin capture and citrulline assays): 450 nmol/min/mg

— patent publication US5919682A, “Overproduction of neuronal nitric oxide synthase” (Board of Regents, University of Texas System, priority 1995, dated 1999)
